This test has as its target β-Secretase (Homo sapiens, UniProt P56817). As to conditions: in-vitro ELISA; βAP produced in presence of β-Secretase and APP versus control without inhibitor. (In general: In an ELISA, binding on a coated surface is turned into a signal by an enzyme label.)

Our source for the IC50 values is patent publication US20060063717A1, “Novel inhibitor of beta amyloid cleavage” (Pfizer Inc, priority 2001, published 2006).

*1 amine or outer side, *2 acyl side, *3 side chain or, on linkers, in order; H or OH if unused. Where a SMILES comes first, the peptide text is derived from it. [ ]: non-standard residue; d: D form. X1 = CC(C)(O)[C@H](C[C@H](O)[C@H](CC1CCCCC1)N[*:1])C(=O)[*:2]

Sequence of β-Secretase (P56817 46-501): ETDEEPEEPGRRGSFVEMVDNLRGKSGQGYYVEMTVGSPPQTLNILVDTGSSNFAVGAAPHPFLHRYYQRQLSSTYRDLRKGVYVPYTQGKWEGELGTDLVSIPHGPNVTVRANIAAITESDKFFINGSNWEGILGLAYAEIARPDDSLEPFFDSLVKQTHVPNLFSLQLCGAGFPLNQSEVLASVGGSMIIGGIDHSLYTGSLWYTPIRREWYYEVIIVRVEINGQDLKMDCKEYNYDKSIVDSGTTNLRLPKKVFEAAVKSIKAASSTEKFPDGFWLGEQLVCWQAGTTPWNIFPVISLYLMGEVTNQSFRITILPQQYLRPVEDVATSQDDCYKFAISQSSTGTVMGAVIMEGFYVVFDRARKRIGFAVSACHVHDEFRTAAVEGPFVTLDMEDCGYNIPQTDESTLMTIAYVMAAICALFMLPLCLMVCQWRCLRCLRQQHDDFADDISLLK
Description: Such assays, which are well known in the art, measure the concentration of βAP produced (by detection of an antibody against the amino terminus of βAP) in the presence of β-Secretase and APP versus control experiments in the absence of inhibitor.

With `CC(C)[C@H](NC(=O)[C@@H](N)CCC(=O)O)C(=O)N[C@@H](CC(N)=O)C(=O)N[C@@H](CC1CCCCC1)[C@@H](O)C[C@H](C(=O)N[C@H](C)C(=O)N[C@H](CCC(=O)O)C(=O)N[C@H](Cc1ccccc1)C(=O)O)C(C)(C)O` [compound of formula I] (H-EVN[X1][dA][dE][dF]-OH), the IC50 (commonly the concentration that gives 50% inhibition) was determined as 0.049 µM.
